Assay: solvent given as SMILES

In the case of `CCOC(=O)c1c(-c2cc3cc4c(cc3oc2=O)OC(C)(C)CC4)nn(-c2ccccc2)c1C(=O)OCC`, the emission maximum (in ClCCl) was 430 nm.
Compound `O=S(=O)([O-])c1ccc(/C=C/c2ccc(-c3nnc(-c4ccc(/C=C/c5ccc(S(=O)(=O)[O-])cc5S(=O)(=O)[O-])cc4)o3)cc2)c(S(=O)(=O)[O-])c1` has an emission maximum (in C1CCOC1) of 416 nm, an emission maximum (in CC(C)=O) of 415 nm and an emission maximum (in CN(C)C=O) of 430 nm.
Compound `CCCCCCCCCCCCOc1cc2c3c(ccc4c5c(OCCCCCCCCCCCC)cc6c7c(ccc(c1c34)c75)C(=O)N(C1CCCCC1)C6=O)C(=O)N(C1CCCCC1)C2=O` has an emission maximum (in ClC(Cl)Cl) of 597 nm.
`Cc1ccc(C2=C3C=CC(/C=C/c4ccccc4)=[N+]3[B-](F)(F)n3c(/C=C/c4ccccc4)ccc32)cc1` showed an emission maximum (in C1CCCCC1) of 642 nm, an emission maximum (in C1CCOC1) of 645 nm and an emission maximum (in C1COCCO1) of 646 nm. For the same compound, the emission maximum (in CCOC(C)=O) was 641 nm, the emission maximum (in CO) was 639 nm and the emission maximum (in Cc1ccccc1) was 649 nm. The emission maximum (in ClC(Cl)Cl) was 647 nm.
Work on `CCC1=C(C)C(=O)n2c1cc1c(C)c(CC(=O)O)c(C)n1c2=O` yielded an emission maximum (in CO) of 535 nm, an emission maximum (in CS(C)=O) of 505 nm and an emission maximum (in ClC(Cl)Cl) of 485 nm. It also gave an emission maximum (in c1ccccc1) of 465 nm.
Work on `Cc1cc(O)c(C(=O)/C=C/c2ccccc2[N+](=O)[O-])c(=O)o1` yielded an emission maximum (in CC#N) of 480 nm and an emission maximum (in ClCCl) of 471 nm.
In the case of `CC1=CC(C)=[N+]2C1=C(c1ccc(I)cc1)c1c(C)cc(C)n1[B-]2(Oc1ccc([N+](=O)[O-])cc1)Oc1ccc([N+](=O)[O-])cc1`, the emission maximum (in ClC(Cl)Cl) was 516.5 nm.
`CC(C)c1cc(C(C)C)c(B2c3ccccc3Oc3cc(N4c5ccccc5C5(c6ccccc6Oc6ccccc65)c5ccccc54)ccc32)c(C(C)C)c1` gave an emission maximum (in Cc1ccccc1) of 451 nm.
For `Cc1cc(C)c(C2=C3C=C(/C=C/C(=O)OCc4ccccc4)C=[N+]3[B-](F)(F)n3cccc32)c(C)c1`, the emission maximum (in ClCCl) was 568 nm.
With `CN(C)c1ccc(C#Cc2ccc3ccc4c(C#Cc5ccc(N(C)C)cc5)ccc5ccc2c3c54)cc1` the emission maximum (in C1COCCO1) was 489.2 nm, the emission maximum (in CC(C)=O) was 569.6 nm and the emission maximum (in CCCCCC) was 460.4 nm. For the same compound, the emission maximum (in CCCCCCO) was 528.2 nm, the emission maximum (in CCO) was 540 nm and the emission maximum (in CCOC(C)=O) was 523.5 nm. The emission maximum (in CO) was 554 nm, the emission maximum (in Cc1ccccc1) was 483.7 nm and the emission maximum (in ClCCl) was 532.8 nm.
In the case of `COc1ccc2c3c(cccc13)C(=O)c1ccccc1-2`, the emission maximum (in CC#N) was 526.87 nm, the emission maximum (in CC(C)=O) was 520.02 nm and the emission maximum (in CC(C)O) was 541.13 nm. The emission maximum (in CCCCOCCCC) was 487.09 nm, the emission maximum (in CCOC(C)=O) was 506.07 nm and the emission maximum (in CCOCC) was 498.01 nm. For the same compound, the emission maximum (in CO) was 560.85 nm, the emission maximum (in Cc1ccccc1) was 500 nm and the emission maximum (in Clc1ccccc1) was 507.87 nm. For the same compound, the emission maximum (in N#Cc1ccccc1) was 520.02 nm and the emission maximum (in O=C1CCCCC1) was 520.02 nm.
Work on `Cc1cc(C)c(B(c2ccc(-c3ccc(-c4nc5c6ccccc6c6ccccc6c5[nH]4)cc3)cc2)c2c(C)cc(C)cc2C)c(C)c1` yielded an emission maximum (in C1CCOC1) of 474 nm, an emission maximum (in CC(C)=O) of 493 nm and an emission maximum (in CS(C)=O) of 520 nm. The emission maximum (in Cc1ccccc1) was 435 nm and the emission maximum (in ClCCl) was 469 nm.
Work on `CC(C)(C)[Si](C)(C)C#Cc1c2c(=O)c3ccccc3c2c(C#C[Si](C)(C)C(C)(C)C)c2c(=O)c3ccccc3c12` yielded an emission maximum (in ClC(Cl)Cl) of 571 nm.
For `CC(C)(C)c1cc(/C2=C3\C=CC(=N3)/C(c3ccc(Br)cc3)=c3/cc/c([nH]3)=C(\c3ccc(Br)cc3)C3=N/C(=C(/c4cc(C(C)(C)C)cc(C(C)(C)C)c4)c4cc2c[nH]4)C=C3)cc(C(C)(C)C)c1`, the emission maximum (in CC(=O)N(C)C) was 716 nm.
Compound `C(#Cc1nc(C#Cc2ccccc2)c(C#Cc2ccccc2)c(C#Cc2ccccc2)c1C#Cc1ccccc1)c1ccccc1` has an emission maximum (in ClCCl) of 438 nm.
Compound `CCn1c2ccccc2c2cc(-c3cc(-c4ccc5c(c4)c4ccccc4n5CC)nc(N4CCCCC4)n3)ccc21` has an emission maximum (in C1CCOC1) of 408 nm, an emission maximum (in CCOC(C)=O) of 409 nm and an emission maximum (in CN(C)C=O) of 417 nm. It also gave an emission maximum (in Cc1ccccc1) of 406 nm and an emission maximum (in ClCCl) of 414 nm.
`O=S1(=O)C2=C(c3ccc(-c4ccc(N(c5ccccc5)c5ccccc5)cc4)cc31)C1(C3=C(c4ccccc41)S(=O)(=O)c1cc(-c4ccc(N(c5ccccc5)c5ccccc5)cc4)ccc13)c1ccccc12` gave an emission maximum (in C1CCOC1) of 599 nm, an emission maximum (in CC#N) of 665 nm and an emission maximum (in CCCCCC) of 485 nm. It also gave an emission maximum (in Cc1ccccc1) of 543 nm and an emission maximum (in ClCCl) of 624 nm.
Compound `F[B-]1(F)OC(c2ccccc2)=Cc2c3ccccc3c3ccccc3[n+]21` has an emission maximum (in ClC(Cl)Cl) of 447 nm.
In the case of `N#Cc1c(-n2c3ccccc3c3ccccc32)cc(N2c3ccccc3C(c3ccccc3)(c3ccccc3)c3ccccc32)cc1-n1c2ccccc2c2ccccc21`, the emission maximum (in Cc1ccccc1) was 471 nm.
`CCC1=C(C)C2=Cc3c4ccccc4c4n3[B-](C)(Oc3ccccc3-4)[N+]2=C1C` (stereo unspecified) gave an emission maximum (in CC#N) of 630 nm, an emission maximum (in CCCCCC) of 632 nm and an emission maximum (in Cc1ccccc1) of 636 nm. For the same compound, the emission maximum (in ClCCl) was 635 nm.
Work on `CC(=O)Nc1ccc(C2=C/C(=C\c3ccc(C#N)cc3)C(=O)N2)cc1` yielded an emission maximum (in C1COCCO1) of 584 nm.
In the case of `CC(C)(C)c1ccc(-c2nnc(-c3c(-n4c5ccccc5c5ccccc54)c(-n4c5ccccc5c5ccccc54)c(-n4c5ccccc5c5ccccc54)c(-n4c5ccccc5c5ccccc54)c3-n3c4ccccc4c4ccccc43)o2)cc1`, the emission maximum (in Cc1ccccc1) was 482 nm.
`CCCCN1c2ccccc2Sc2cc(/C=C\c3cc(=O)oc4cc(C)ccc34)ccc21` gave an emission maximum (in ClC(Cl)Cl) of 632 nm.
For `O=C1/C(=C2\Sc3ccc(S(=O)(=O)Nc4ccccc4)cc3C2=O)Sc2ccc(S(=O)(=O)Nc3ccccc3)cc21`, the emission maximum (in C1COCCO1) was 588 nm, the emission maximum (in CN(C)C=O) was 604 nm and the emission maximum (in CO) was 618 nm. It also gave an emission maximum (in CS(C)=O) of 627 nm.
For `CCOC(CN1C(=O)C2=C(c3cccs3)N(CC(OCC)OCC)C(=O)C2=C1c1cccs1)OCC`, the emission maximum (in ClC(Cl)Cl) was 557 nm.
Work on `Cc1nc(-c2cc(N)ccc2O)n2c1CCCC2` yielded an emission maximum (in ClCCl) of 543 nm.
For `COc1ccc(N(c2ccc(OC)cc2)c2ccc(-c3ccc(C=C(C#N)C#N)s3)cc2)cc1`, the emission maximum (in ClC(Cl)Cl) was 700 nm.
`CCn1c2ccccc2c2cc(-c3cc(-c4ccc5c(c4)c4ccccc4n5CC)nc(C#N)n3)ccc21` gave an emission maximum (in C1CCOC1) of 427 nm, an emission maximum (in CCOC(C)=O) of 422 nm and an emission maximum (in CN(C)C=O) of 455 nm. For the same compound, the emission maximum (in Cc1ccccc1) was 404 nm and the emission maximum (in ClCCl) was 435 nm.
For `COc1cc(OC)cc(C2=[O+][B-](F)(F)OC(c3ccc4ccccc4c3)=C2)c1`, the emission maximum (in CC#N) was 521.21 nm, the emission maximum (in CC(C)=O) was 521.21 nm and the emission maximum (in CCCCCC) was 418.89 nm. For the same compound, the emission maximum (in Cc1ccccc1) was 492.31 nm and the emission maximum (in ClCCl) was 560 nm.
For `N#Cc1cc(-c2ccc(/C=C/c3ccc(N(c4ccccc4)c4ccccc4)cc3)c(C#N)c2)ccc1/C=C/c1ccc(N(c2ccccc2)c2ccccc2)cc1`, the emission maximum (in ClCCl) was 541 nm.
For `c1ccc(-c2nc(-c3ccccc3)nc(-c3cc(-n4c5ccccc5c5ccccc54)cc(-n4c5ccccc5c5ccccc54)c3)n2)cc1`, the emission maximum (in C1CCCCC1) was 409.39 nm, the emission maximum (in C1CCOC1) was 546.94 nm and the emission maximum (in Cc1ccccc1) was 475.1 nm.
With `Cc1cc(C)c(B(c2c(C)cc(C)cc2C)N2c3ccccc3C(C)(C)c3ccccc32)c(C)c1` the emission maximum (in C1CCCCC1) was 533 nm, the emission maximum (in Cc1ccccc1) was 558 nm and the emission maximum (in ClCCl) was 580 nm.
Work on `N#Cc1c(N2CCCCC2)cc(-c2ccc3ccc4cccc5ccc2c3c45)c2c1-c1ccccc1C2` yielded an emission maximum (in C1CCOC1) of 460 nm.
`COC(=O)c1nc(-c2cccc3ccccc23)oc1C` showed an emission maximum (in C1CCCCC1) of 340 nm, an emission maximum (in CC#N) of 343 nm and an emission maximum (in CCO) of 344 nm. For the same compound, the emission maximum (in CCOC(C)=O) was 342 nm.
Compound `O=C1c2cc(-n3c4ccccc4c4ccccc43)c(-n3c4ccccc4c4ccccc43)cc2C(=O)N1c1ccccc1` has an emission maximum (in Cc1ccccc1) of 510 nm.
`CCCCCCCCCCCC#CC#CCCCCCCCCCN1C(=O)c2ccc3c4ccc5c6c(ccc(c7ccc(c2c37)C1=O)c64)C(=O)N(CCCCCCCCCC#CC#CCCCCCCCCCCCC)C5=O` gave an emission maximum (in ClC(Cl)Cl) of 535 nm.
`Cc1ccc(C(=O)/N=c2\oc3cccc4c5c(-c6ccccc6)oc6cccc(c(c2-c2ccccc2)c34)c65)cc1` gave an emission maximum (in ClC(Cl)Cl) of 535 nm.
With `C[Si](C)(c1c2ccccc2cc2ccccc12)[Si](C)(C)c1c2ccccc2cc2ccccc12` the emission maximum (in C1CCCCC1) was 425 nm and the emission maximum (in CC#N) was 425 nm.
`C[Si](C)(C)C#Cc1cc2ccc3cc(C#C[Si](C)(C)C)cc4ccc(c1)c2c34` showed an emission maximum (in Cc1ccccc1) of 407 nm.
In the case of `COC(=O)CCC1=CC(C#Cc2ccc(OC)cc2)=[N+]2C1=Cc1c(CCC(=O)OC)cc(C#Cc3ccc(OC)cc3)n1[B-]2(F)F`, the emission maximum (in ClCCl) was 682 nm.
For `COC(=O)C1=C(C(=O)OC)C2(c3cc([N+](=O)[O-])ccc3-c3ccc([N+](=O)[O-])cc32)C2(/C=C/c3ccccc3)c3cc(OC)c(OC)cc3CCN12` (stereo unspecified), the emission maximum (in ClCCl) was 495 nm.
With `CCCCCCn1c2ccccc2c2cc(/C=C/c3cc(=O)oc4cc(C)ccc34)ccc21` the emission maximum (in CS(C)=O) was 542 nm and the emission maximum (in ClC(Cl)Cl) was 504 nm.
Compound `CC(C)[Si](C#Cc1c2cc3ccccc3cc2c(C#Cc2ccccc2)c2cc3ccccc3cc12)(C(C)C)C(C)C` has an emission maximum (in ClCCl) of 661 nm.
With `CCC1=C(C)C2=C(/C=C/c3ccc(OC)cc3)c3c(C)c(CC)c(C)n3[B-](F)(F)[N+]2=C1C` the emission maximum (in ClCCl) was 542 nm.
In the case of `COc1ccccc1-n1nc(C#N)c(N2CCCC2)n1`, the emission maximum (in CC#N) was 418 nm.
Compound `COC(=O)C1=C(C(=O)OC)C2(c3ccccc3-c3c(C(=O)OC)cccc32)[C@@H](c2ccc(Cl)cc2)C=C2c3cc(OC)c(OC)cc3CCN21` (stereo partly specified) has an emission maximum (in ClCCl) of 439 nm.
With `CC(C)(C)c1ccc2c3c(c4ccc(C(C)(C)C)cc4c2c1)=[N+]1C(=C(c2ccccc2)c2c(Br)c4c5ccc(C(C)(C)C)cc5c5cc(C(C)(C)C)ccc5c4n2[B-]1(F)F)C=3Br` the emission maximum (in C1CCCCC1) was 711 nm, the emission maximum (in C1CCOC1) was 715 nm and the emission maximum (in CC#N) was 714 nm. It also gave an emission maximum (in Cc1ccccc1) of 715 nm and an emission maximum (in ClCCl) of 717 nm.
In the case of `CCOC(=O)c1cc2ccc3ccccc3c2c(C#N)c1N`, the emission maximum (in Cc1ccccc1) was 461 nm.
With `CC[N+]1(CC)CN2C(=N1)C(C(=O)O)=Cc1ccc(C)cc12` the emission maximum (in O) was 457 nm.
Work on `[NH3+]c1ccc2c(c1)Cc1ccccc1-2` yielded an emission maximum (in O) of 314 nm.
Work on `CCN(CC)c1ccc2c(-c3ccccc3C(=O)O)c3c([o+]c2c1)/C(=C/c1ccc(N2CCCC2)s1)CCC3` yielded an emission maximum (in ClCCl) of 770 nm.
`CCCCN1C(=O)c2ccc3c4c(Br)cc5c6c(ccc(c7c(Br)cc(c2c37)C1=O)c64)C(=O)N(CCCC)C5=O` showed an emission maximum (in ClC(Cl)Cl) of 542 nm.
